Reference: PubChem BioAssay (NCI)
Several values for one entry are separate records, joined by “and”; a condition that tells them apart may be missing. Identical values can stand only once.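 48-hour exposure; five concentrations; linearly interpolated endpoints. Here, GI50 denotes the concentration required for 50% inhibition of growth. At the TGI there is no net growth.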

What was measured:
Experiment in all cases: growth of human tumour cells (NCI), 48 h
[1] = tested on: M14 melanoma
[2] = tested on: SF-295 CNS
[3] = tested on: U251 CNS
[4] = tested on: HCT-15 colon
[5] = tested on: SNB-19 CNS
[6] = tested on: DLD-1 colon
[7] = tested on: SK-MEL-5 melanoma
[8] = tested on: NCI-H226 lung
[9] = tested on: M19-MEL melanoma
[10] = tested on: DU-145 prostate

SMILES | TGI [1] | TGI [2] | TGI [3] | TGI [4] | TGI [5] | TGI [6] | TGI [7] | TGI [8] [µM] | TGI [9] | TGI [10] [µM] | GI50 [1] [µM] | GI50 [7] [µM] | GI50 [3] [µM] | GI50 [4] [µM] | GI50 [5] [µM] | GI50 [6] [µM] | GI50 [9] [µM] | GI50 [2] [µM] | GI50 [8] [µM] | GI50 [10] [µM]
CN1CC(C(=O)C2C(=O)c3ccccc3C2=O)C(=O)C(=O)C(C(=O)C2C(=O)c3ccccc3C2=O)C1 (stereo unspecified) | > 10 µM | > 100 µM | > 100 µM | > 100 µM | > 100 µM | > 100 µM | – | – | – | – | – | – | – | – | – | – | – | – | – | –
CC1=CCC23C(C1)OC(Br)(C=CC2(C)O)C3(C)C (stereo unspecified) | – | > 100 µM | – | – | – | > 100 µM | > 100 µM | > 100 | > 100 µM | – | – | – | – | – | – | – | – | – | – | –
CCOC(=O)C1SC(=Nc2ccc(Cl)c(Cl)c2)N=C1C (stereo unspecified) | > 100 µM | > 100 µM | > 100 µM | > 100 µM | > 100 µM | > 100 µM | – | 67.7 | > 100 µM | – | – | – | – | – | – | – | – | – | – | –
Fc1ccc(C2SCc3nc4ccccc4n32)cc1 (stereo unspecified) | > 100 µM | > 100 µM | > 100 µM | > 100 µM | 9.64 µM | > 100 µM | 38 µM | 92.4 | > 100 µM | – | – | – | – | – | – | – | – | – | – | –
O=C(OCC1CO1)c1cccs1 (stereo unspecified) | > 100 µM | > 100 µM | – | > 100 µM | > 100 µM | > 100 µM | > 100 µM | – | > 100 µM | – | – | – | – | – | – | – | – | – | – | –
COc1cc(/C=C2\CCC(CN(C)C)C2=O)ccc1OC(=O)c1ccccc1 (stereo unspecified) | 22.9 µM | 32 µM | 29.8 µM | 20.4 µM | 25.5 µM | 16.1 µM | 29.3 µM | 33.8 | 24.7 µM | 29.8 | – | – | – | – | – | – | – | – | – | –
CC(=O)OCC1OC(OC2CC3C(C)(C)C(O)CC[C@]3(C)C3CCC45CC4(CC[C@H]5C(C)CC(O)C4OC4(C)C)[C@]23C)C(O)C(O)C1O (stereo partly specified) | 16 µM and 17.2 µM | 15.1 µM and 19.5 µM | 10.3 µM and 16.5 µM | 15.3 µM and 27.6 µM | 15 µM and 16.9 µM | 14.9 µM and 28.8 µM | 10.2 µM and 17.6 µM | 16.1 | 10.6 µM and 12.6 µM | – | 5.37 | 5.65 | 5.17 | 14.2 | 5.14 | 14 | 3.7 | – | – | –
O=C(C(=O)N1CC2C=CC1CC2)c1c[nH]c2ccccc12 (stereo unspecified) | > 100 µM | > 100 µM | > 100 µM | > 100 µM | > 100 µM | > 100 µM | > 100 µM | > 100 | > 100 µM | – | – | – | – | – | – | – | – | – | – | –
Nc1c(C(=O)Nc2ccccc2)[n+]([O-])c2ccccc2[n+]1[O-] | 32.8 µM | 41.1 µM | 26.3 µM | 28.2 µM | 31 µM | 37.6 µM | 29.1 µM | 76.3 | 32.2 µM | – | – | – | – | – | – | – | – | – | – | –
COc1cc2c(cc1O)CC13CCC(=O)N1CCc1cc(OC)c(O)c-2c13 (stereo unspecified) | > 68.1 µM | > 68.1 µM | – | > 68.1 µM | > 68.1 µM | > 68.1 µM | > 68.1 µM | > 68.1 | > 68.1 µM | – | – | – | – | – | – | – | – | – | – | –
CCN(CCCl)CCCNc1c2ccccc2nc2ccc(OC)cc12 | – | – | – | 1.86 µM | – | – | – | – | – | – | 213 | 626 | 387 | – | 205 | 174 | 323 | 308 | 580 | –
C/C(=N\N=C(/[Se])N1CC2CCC(CC2)C1)c1ccccn1 | 0.701 µM | 2.24 µM | 1.51 µM | 2.06 µM | 4.06 µM | 1.96 µM | 0.433 µM | 1.88 | 0.559 µM | 1.68 | – | – | – | – | – | – | – | – | – | –
O=C(CC(=O)N1N=C(N2c3ccccc3Sc3ccccc32)CC1c1ccccc1)Nc1ccc(Cl)cc1 (stereo unspecified) | > 100 µM | > 100 µM | > 100 µM | > 100 µM | > 100 µM | > 100 µM | > 100 µM | – | > 100 µM | – | – | – | – | – | – | – | – | – | – | –
C1OC1CO[C@@H]1CO[C@H]2[C@@H]1OC[C@H]2OCC1CO1 (stereo partly specified) | > 100 µM | > 100 µM | > 100 µM | > 100 µM | > 100 µM | > 100 µM | > 100 µM | > 100 | > 100 µM | – | – | – | – | – | – | – | – | – | – | –
CC#CC1/C(=C\C(=O)OC)CCCC1O (stereo unspecified) | > 100 µM | > 100 µM | > 100 µM | > 100 µM | > 100 µM | > 100 µM | > 100 µM | > 100 | > 100 µM | – | – | – | – | – | – | – | – | – | – | –
c1ccc2c(c1)[nH]c1cnc3c4cccnc4[nH]c3c12 | 30.1 µM | 49.8 µM | – | 31.9 µM | 37.3 µM | 33.5 µM | 39.9 µM | 64 | 31.5 µM | – | – | – | – | – | – | – | – | – | – | –
COc1cc2c[n+](C)c3c4ccccc4ccc3c2cc1OC (tested in a mixture with another compound) | 51.9 µM | 71.5 µM | 6.36 µM and 16.9 µM | > 100 µM | 25.1 µM | > 100 µM | 29 µM | 33 | 15.4 µM | 69.6 | 8.31 | 7.6 | 1.31 | – | 0.964 | – | – | – | – | 13.5
NC(=O)C(c1ccccc1)N1CCOCC1 (stereo unspecified) | > 100 µM | > 100 µM | > 100 µM | > 100 µM | – | > 100 µM | > 100 µM | > 100 | > 100 µM | – | – | – | – | – | – | – | – | – | – | –
O=C1C(=O)N(c2ccc(Cl)cc2Cl)C(=O)C(=O)C1c1nc2ccccc2o1 | > 100 µM | > 100 µM | > 100 µM | > 100 µM | > 100 µM | > 100 µM | > 100 µM | > 100 | > 100 µM | – | – | – | – | – | – | – | – | – | – | –
O=C1CN(C(=O)c2ccccc2)Cc2[nH]c3ccccc3c21 | > 100 µM | > 100 µM | > 100 µM | > 100 µM | > 100 µM | > 100 µM | > 100 µM | > 100 | > 100 µM | – | – | – | – | – | – | – | – | – | – | –
Cc1cc(NS(=O)(=O)c2ccc(NC(=O)c3cccc4c(Nc5ccc(S(=O)(=O)N=C(N)N)cc5)c5ccccc5nc34)cc2)no1 | > 100 µM | > 100 µM | > 100 µM | > 100 µM | > 100 µM | > 100 µM | > 100 µM | > 100 | – | – | – | – | – | – | – | – | – | – | – | –
NC(N)=NNC(=O)CCCCCCCC(=O)NN=C(N)N | > 100 µM | > 100 µM | > 100 µM | 34.1 µM | > 100 µM | > 100 µM | > 100 µM | – | > 100 µM | – | – | – | – | – | – | – | – | – | – | –
CC(=O)OC1(C)C(=O)OC1(C)C(C)=O (stereo unspecified) | > 100 µM | > 100 µM | > 100 µM | > 100 µM | > 100 µM | > 100 µM | > 100 µM | > 100 | > 100 µM | – | – | – | – | – | – | – | – | – | – | –
